The record followed here is US20210038628A1, “NANOPARTICLE COMPOSITIONS” (JANUARY THERAPEUTICS, INC., priority 2018, published 2021).

SMILES strings stand for the structures. Structures can show the parent of a compound that is named as a salt.

The subject of the assay is BxPC-3 (pancreatic adenocarcinoma) cell line. Briefly: Cellular proliferation assay in BxPC-3 cells (Cell-Titer Glo). In kind it is cell-based. The note with it: Homo sapiens, 120 hours incubation, Cell-Titer Glo luminescence. How it is done: Compounds are tested for their ability to impair cancer cell proliferation and/or induce cell death. For cellular proliferation studies, cultured cells are treated with the test compound for 24-120 hours. After compound treatment, cell proliferation is assessed by using methods including, but not limited to, Cell-Titer-Glo® (Promega), Alamar Blue, LIVE/DEAD® (ThermoFisher), BrdU incorporation, and live-cell imaging. The cancer lines used include, but are not limited to BxPC-3 (pancreatic cancer). Gemcitabine Hydrochloride serves as a control for activity.
BxPC-3 (pancreatic adenocarcinoma) cell line was purchased from the American Type Culture Collection (Catalog #CRL-1687) and grown in RPMI-1640 medium (e.g. Corning #10-040-CV) with 10% Heat Inactivated Fetal Calf Serum at 37° C. and 5% CO2 (as recommended by the ATCC).
Cultures were grown in […] plates to 80% confluence, and cells were trypsinized to a single-cell suspension. Cells were then resuspended in growth medium to a density of […]. They were then plated into 96-well assay plates (Corning #3917) in a volume of 100 ul/well (2,500 cells/well). Cells were allowed to adhere to plates for 24 h at 37° C. and 5% CO2). Compounds were then added to the wells using an […] serial dilution scheme (over 9 dilutions, generally ranging from 30 μM-30 pM), and the cells were incubated for an additional 120 hours. After 120 h, 90 ul of Cell-Titer Glo reagent (Promega #G7572) was added, and the plates were read using a luminescence counter (e.g., BioTek Synergy HTX at 100 ms read time).
Consider `CCCCCCCCCCCCCCCCCCC(=O)O[C@@H]1[C@@H](COP2(=O)OCc3ccccc3O2)O[C@@H](n2ccc(N)nc2=O)C1(F)F` (stereo partly drawn) [Compound 16, (2R,3R,5R)-5-(4-amino-2-oxopyrimidin-1(2H)-yl)-4,4-difluoro-2-(((2-oxido-4H-benzo[d][1,3,2]dioxaphosphinin-2-yl)oxy)methyl)tetrahydrofuran-3-yl Nonadecanoate], for which the EC50 (in general, the concentration at which the effect is half-maximal) was less than 1 nM.

As for `CCCCCCCCCCCCC(=O)O[C@@H]1[C@@H](COP(=O)(OCOC(=O)CC(C)(C)C)OCOC(=O)CC(C)(C)C)O[C@@H](n2ccc(N)nc2=O)C1(F)F` [Compound 17], the EC50 lay within 1 to 10 nM.

Regarding `CCCCCCCCCCCCCCC(=O)OC1[C@@H](COP(=O)(OCOC(=O)CC(C)(C)C)OCOC(=O)CC(C)(C)C)O[C@@H](n2ccc(N)nc2=O)C1(F)F` (stereo partly shown) [Compound 27], the half-maximal effective concentration (EC50) is less than 1 nM.

Take `Nc1ccn([C@@H]2O[C@H](CO)[C@@H](O)C2(F)F)c(=O)n1` [Gemcitabine Hydrochloride, reference compound]: the EC50 is 1 to 10 nM.
